The record followed here is patent publication US10981926B2 (Janssen Pharmaceutica NV, priority 2016, dated 2021).

In assay [1] the target is GR (human) (Homo sapiens (Human), UniProt P04150). Description: Radioligand binding to GR. The note with it: [3H]dexamethasone, IM-9 cells (cytosol). Here is the method:
(§1) Radioligand binding assays were performed with the cell extracts and ligands as detailed below. Complete methodology is contained within the cited publications. Kd values were determined by Non-Specific Incubation Detection Method.
GR (human) (agonist radioligand) IM-9 cells (cytosol)
[^3H]dexamethasone 1.5 nM 1.5 nM triamcinolone (10 μM) 6 h 4° C. Scintillation counting (Clark, A. F et al. (1996) Invest. Ophtalmol. Vis. Sci., 37: 805-813).
(§2) The results are expressed as a percent of control specific binding measured specific binding*100 control specific binding and as a percent inhibition of control specific binding 100-(measured specific binding*100) control specific binding obtained in the presence of compound.
The IC50 values (concentration causing a half-maximal inhibition of control specific binding) and Hill coefficients (nH) were determined by non-linear regression analysis of the competition curves generated with mean replicate values using Hill equation curve fitting. Y=D+[A−D] 1+(C/C50)nH […]
(§3) The inhibition constants (Ki) were calculated using the Cheng Prusoff equation: Ki=[…]
(§4) Radioligand binding inhibition and affinity calculations were determined using [^3H]-methyltrienolone, [^3H]-dexamethasone and [^3H]-estradiol for AR, GR and ER, respectively. […]

Assay [2] addresses T1, wild-type Androgen Receptor (AR-wt) (Homo sapiens (Human), UniProt P10275). Description: LNCaP-AR-wt ANT reporter assay (antagonist mode). The format is cell-based. Background: Reporter assays use an easily measured gene product as a stand-in for the process of interest.
Assay [3] has as its system VCaP cells. Description: Prostate Cancer Cell Viability Assay-VCaP. The settings on record: Homo sapiens, 120 h, 5 days, CellTiter-Glo. The format is cell-based. Here is the method:
VCaP cells were counted and seeded into black 384-well plates with clear bottoms at a concentration of 125,000 cells per mL in phenol red-free DMEM containing 10% Charcoal Stripped Serum. 16 μL of the suspension was added per well and incubated for 48 h to allow the cells to adhere. After 48 hours, a 12 point serial semilog dilution of each compound was added to the cells in 16 μL at a final concentration of 100 μM to 0.0003 μM. The compounds of Formula (I) were also run in antagonist mode using 30 pM R1881 in which 8 μL of the compound was added to the cells followed by 8 μL of R1881. After 5 days of incubation at 37° C., 16 μL Of CellTiter-Glo (Promega) was added to the cells and the relative luminescence units (RLUs) of each well determined using the Envision. The percent stimulation and % inhibition were determined for each sample and plotted using GraphPad Prism.

Assay [4] addresses T1, wild-type Androgen Receptor (AR-wt). Briefly: LNCaP-AR-wt AG reporter assay (agonist mode). The format is cell-based.
Assay [5] addresses AR (human) (Homo sapiens (Human), UniProt P10275, T878A). Description: Radioligand binding to AR. The settings on record: [3H]methyltrienolone, LNCaP cells (cytosol). Here is the method: as §1
AR (human) (agonist radioligand) LNCaP cells (cytosol)
[^3H]methyltrienolone 1 nM 0.8 nM mibolerone (1 μM) 24 h 4° C. Scintillation counting.
as §2
The IC50 values (concentration causing a half-maximal inhibition of control specific binding) and Hill coefficients (nH) were determined by non-linear regression analysis of the competition curves generated with mean replicate values using Hill equation curve fitting. Y=D+[A−D] 1+(C/C50)nH
wherein Y=specific binding, A=left asymptote of the curve, D=right asymptote of the curve, C=compound concentration, C50=IC50, and nH=slope factor. […]
as §3, §4

The subject of assay [6] is LNCaP F876L. Description: LNCaP Proliferation Assay (LNCaP F876L). The format is cell-based. The note with it: Homo sapiens, 96 h, 4 days, CellTiter-Glo, normalized to 0.1 nM R1881 stimulation. As for the experimental part: LNCaP cells were expanded in RPMI 10% FBS in T150 flasks. The cells were dislodged with 0.25% Trypsin, washed in complete media, centrifuged (300 g, 3 min), and the supernatant aspirated. The cells were resuspended in RPMI phenol-red free media with 1% charcoal-stripped serum (CSS) and counted using a ViCELL (Beckman-Coulter). 7500 cells were added to each well of a white optical bottom 384-well plate and incubated for 2 days at 37° C. 5% CO2. Compound dilutions were prepared in RPMI CSS using 50 mM stock solutions and added to the cells either alone (agonist mode) or in combination with 0.1 nM R1881 (antagonist mode). The plates were incubated for 4 days, followed by addition of CellTiter-Glo Luminescent Cell Viability kit reagent (Promega). The plates were placed on a shaker at 3000 rpm for 10 minutes and then read on an EnVision plate reader (Perkin Elmer) using Luminescence assay default settings. The data was analyzed, normalized to 0.1 nM R1881 stimulation, and plotted in GraphPad Prism.
For orientation: ATP-based viability assays read luminescence as a measure of living cells.

Assay [7] deals with AR-VP16 (Homo sapiens, UniProt P10275). Description: AR-VP16 DNA Binding Assay (VP16 WT). The format is cell-based. The settings on record: HepG2, antagonist mode, 90 pM R1881, 48 hours. Here is the method:
HepG2 cells were maintained in EMEM supplemented with 10% FBS. One day before transfection, the media was changed to EMEM with 10% CSS. T-150 flasks were transiently transfected using 120 μL Lipofectamine 2000 (Life Technologies), 24.5 μg AR-VP16 or F876L-VP16 (expression vector) and 49 μg 4×ARE-Luciferase (reporter vector) in OptiMEM and the flasks were incubated overnight. Cells were then trypsinized, counted and resuspended at 500,000 cells/mL. For agonist mode, the compounds were serially diluted and 50 μL of the compound was added per well. 50 μL of the cells were added to each well and incubated for 48 hours. For antagonist mode, a final concentration of 90 pM (VP16 AR) or 1 nM (VP16 F876L) R1881 was added to the plate and incubated for 48 hours. The plates were then assayed using SteadyGlo and read on the Envision. Percent Stimulation and Inhibition were determined and analyzed using GraphPad Prism.

T1 sequence (P10275 whole entry): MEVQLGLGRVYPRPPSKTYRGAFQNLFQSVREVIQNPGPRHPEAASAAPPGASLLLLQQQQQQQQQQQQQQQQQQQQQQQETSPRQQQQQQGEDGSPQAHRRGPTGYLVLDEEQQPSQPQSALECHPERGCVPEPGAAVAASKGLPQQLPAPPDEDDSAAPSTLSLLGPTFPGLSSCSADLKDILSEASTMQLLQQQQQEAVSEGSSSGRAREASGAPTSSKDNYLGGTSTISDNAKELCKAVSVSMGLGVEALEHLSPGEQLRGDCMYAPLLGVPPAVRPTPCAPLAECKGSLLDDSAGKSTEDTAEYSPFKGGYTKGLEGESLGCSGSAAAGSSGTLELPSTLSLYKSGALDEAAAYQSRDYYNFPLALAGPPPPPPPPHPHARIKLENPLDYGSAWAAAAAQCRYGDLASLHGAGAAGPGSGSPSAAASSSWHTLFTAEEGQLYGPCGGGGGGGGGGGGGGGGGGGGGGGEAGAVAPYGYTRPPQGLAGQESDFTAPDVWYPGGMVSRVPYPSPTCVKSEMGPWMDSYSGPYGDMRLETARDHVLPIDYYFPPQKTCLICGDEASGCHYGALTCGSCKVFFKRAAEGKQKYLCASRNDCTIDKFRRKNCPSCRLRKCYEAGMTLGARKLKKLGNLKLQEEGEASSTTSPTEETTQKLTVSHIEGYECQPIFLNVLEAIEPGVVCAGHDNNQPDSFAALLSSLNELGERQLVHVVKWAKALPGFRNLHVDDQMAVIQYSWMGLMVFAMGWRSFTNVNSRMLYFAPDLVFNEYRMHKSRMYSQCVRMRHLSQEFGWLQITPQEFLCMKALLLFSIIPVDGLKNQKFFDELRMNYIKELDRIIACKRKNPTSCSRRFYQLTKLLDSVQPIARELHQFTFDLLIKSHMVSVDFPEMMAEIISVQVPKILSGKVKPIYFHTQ
Chain of AR (human) (P10275 whole entry T878A): as the sequence (P10275 whole entry) above, with T878A counted along it
Chain of GR (human) (P04150 whole entry): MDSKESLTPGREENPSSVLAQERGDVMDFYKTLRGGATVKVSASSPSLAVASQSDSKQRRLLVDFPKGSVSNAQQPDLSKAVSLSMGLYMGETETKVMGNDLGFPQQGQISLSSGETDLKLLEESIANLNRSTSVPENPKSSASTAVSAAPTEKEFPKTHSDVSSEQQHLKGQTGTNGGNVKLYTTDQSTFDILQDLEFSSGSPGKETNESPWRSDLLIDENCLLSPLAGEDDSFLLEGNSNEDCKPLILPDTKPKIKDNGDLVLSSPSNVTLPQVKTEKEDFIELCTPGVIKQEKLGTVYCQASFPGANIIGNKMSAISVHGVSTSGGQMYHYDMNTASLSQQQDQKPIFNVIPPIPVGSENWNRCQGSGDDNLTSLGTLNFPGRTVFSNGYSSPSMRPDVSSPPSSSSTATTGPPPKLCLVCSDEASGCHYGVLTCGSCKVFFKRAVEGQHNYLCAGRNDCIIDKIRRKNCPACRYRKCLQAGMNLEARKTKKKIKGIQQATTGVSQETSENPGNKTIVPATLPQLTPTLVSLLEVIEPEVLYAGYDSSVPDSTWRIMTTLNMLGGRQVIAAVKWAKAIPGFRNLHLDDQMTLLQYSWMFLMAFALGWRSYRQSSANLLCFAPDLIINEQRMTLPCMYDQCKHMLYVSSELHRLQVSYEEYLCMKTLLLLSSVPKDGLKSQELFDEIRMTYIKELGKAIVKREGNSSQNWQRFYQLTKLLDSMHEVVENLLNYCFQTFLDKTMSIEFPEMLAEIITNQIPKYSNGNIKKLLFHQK
Chain of AR-VP16 (P10275 whole entry, looked up): as the sequence (P10275 whole entry) above

For the compound `N#Cc1ncc(N2C(=O)C3(CCC3)N(c3ccc(OC4CCNCC4)nc3)C2=S)cc1C(F)(F)F` [Cpd 43, 5-[5-oxo-8-[6-(4-piperidyloxy)-3-pyridyl]-7-thioxo-6,8-diazaspiro[3.4]octan-6-yl]-3-(trifluoromethyl)pyridine-2-carbonitrile], the IC50 (in general, the point on the concentration scale where inhibition reaches its midpoint) was greater than 30000 nM in assay [1]; 270 nM in assay [3]; 6.9 nM in assay [5]; 197 nM in assay [6]; 7750 nM in assay [7]. Moreover, the “LNCaP-AR-wt ANT pIC50” value in assay [2] (antagonist mode, pIC50 = −Log10(IC50 in Molar)) is on record as 7.27. Also, in assay [2] (maximum % inhibition of R1881 control response over the tested concentration range), the “LNCaP-AR-wt ANT MAX % Inh” value worked out at 101.1%. Besides, the EC50 in assay [4] (agonist mode, pEC50 = −Log10(EC50 in Molar), read-out: LNCaP-AR-wt AG pEC50 (converted)) is greater than 15100 nM. The “LNCaP-AR-wt AG MAX % Stim” value in assay [4] (maximum % stimulation (agonist response) over the tested concentration range) is −0.1%. Besides, the affinity in assay [5] (Cheng Prusoff) corresponds to a Ki of 3 nM.
